Laboratory results as given in patent publication US12699094B2, “Fluorescent biosensor for acetyl coenzyme A” (UNIVERSITY OF UTAH RESEARCH FOUNDATION, priority 2023, dated 2026).

Experiments:
[1] = tested on: E. coli (Rosetta DE3 cells)
Experimental: Plate Reader Refeeding. All assays were done with the BioTek Synergy™ Plate Reader with injectors. All sensors and control proteins were expressed in Rosetta (DE3) cells. PanZ was used as a non-fluorescent control, cpGFP was used as a fluorescent control, and PANcACe was the experimental. Reads were done with excitation 405 nm and 485 nm and emission at 514 nm. Cultures were grown in LB with kanamycin overnight at 37° C. then used to induce new cultures. Cells were grown at 37° C. to an OD600 of 0.6 then induced with 0.5 mM IPTG and grown overnight at 18° C. Cultures were split into 2, 600 μL aliquots and spun at 4000 rpm for 5 minutes.
Glucose Starvation and Refeeding. The supernatant was discarded and pellets were resuspended in 600 μL either starvation buffer (100 mM NaPO4, 2 mM MgCl2, 15 mM (NH4)2SO4+0 mM glucose) or refed buffer (100 mM NaPO4, 2 mM MgCl2, 15 mM (NH4)2SO4+28 mM glucose). 85 μL was added to 3 wells of a 96 well plate for each sample. […] Plates were read for 10 minutes every 30 seconds with 10 seconds of shaking between reads. […] Plates were read for 60 minutes every 30 seconds with 10 seconds of shaking between reads.
2-Deoxyglucose Starvation and Refeeding. […] Plates were read for 10 minutes every 30 seconds with 10 seconds of shaking between reads. […] Plates were read for 60 minutes every 30 seconds with 10 seconds of shaking between reads.

[2] = biological target: PancAce (PANcACe), PanZ(R69)-GA-cpGFP-GA-(E70)PanZ, SEQ ID NO: 5; E. coli PanZ with cpGFP insertion (Escherichia coli, UniProt P37613, INS69[…]); assay: Fluorescence titration of PancAce with acetyl-CoA, CoA and propionyl-CoA; type: binding
Experimental: Acetyl-CoA and CoA Titration and Spectrum Scans. Assays were done in 384 well plates with […] final well volume. All sensors and control proteins were diluted to 6 μM in protein storage buffer. Acetyl-CoA and CoA were dissolved in water at a concentration of 60 μM then serial diluted to 30 μM, 15 μM, 6 μM, 3 μM, 0.6 μM, 0.06 μM, and 0.006 μM. Wells were set up in triplicate with 14 μL water, 6 μL assay buffer, and 5 μL sensor. 5 μL of an acetyl-CoA stock or water were added to 1 μM sensor before reading. For Titration curves, plates were read at excitation 485 nm and emission 514 nm. For excitation scans plates were excited from 400 nm to 500 nm at 1 nm increments and emissions were read at […]. For emission scans plates were excited at 485 nm, 427 nm, or 405 nm and emissions were read from 500 nm to 575 nm in 1 nm increments. Triplicates were averaged and plotted for scans and percent difference between no acetyl-CoA and acetyl-CoA wells were calculated for titrations.
Titrations of acetyl-CoA and CoA with PANcACe and cpGFP alone were performed (FIG. 9). […] Since the insertion site of cpGFP is very close to the acetyl-CoA binding site, this effect was not surprising. […] Further, the selectivity of PANcACe for short-chain acyl-CoAs was tested (FIG. 11). […] A propionyl-CoA titration confirmed this apparent affinity difference (FIG. 12). Since saturation was not achieved up to 10 mM propionyl-CoA, it was assumed that the same maximal sensor response would be achieved for propionyl-CoA as for acetyl-CoA.

[3] = biological target: E. coli PanZ (PanZ-CFP fusion protein), SEQ ID NO: 1 (Escherichia coli, UniProt P37613); assay: Surface plasmon resonance binding to PanZ-CFP; details: SPR
Experimental: Surface Plasmon Resonance. Acetyl-CoA and CoA binding to PanZ-CFP were analyzed via SPR using a MASS-1 instrument (Bruker Daltonics, Billerica, MA). Independent experiments were performed using freshly prepared PanZ-CFP, Acetyl-CoA, and CoA stocks on two separate days (surfaces 1 & 2). HLC200 μM sensor surfaces (Xantec Bioanalytics, Düsseldorf, Germany) were activated with EDC/NHS, and then 250 nM PanZ-CFP ligand was captured on the sensor “Spot B” at 10 μL/minute at 2020 RU (surface 1) and 2360 RU (surface 2). The surface was then blocked with […]. The experimental running buffer was 50 mM Tris pH 7.5, 150 mM NaCl, 0.05% Tween-20 for surface 1 replicates and 200 mM Tris pH 7.5, 150 mM NaCl, 0.05% Tween-20 for surface 2 replicates. Experiments were performed at room temperature with a flowrate of 30 μL/minute. A three-fold dilution series (81-0.33 μM) with 1 minute association and 2 minutes dissociation was run in multiple replicates (at least two for each analyte on each surface). Data were double blanked by subtracting the blank in-line control surface (Spot A) and buffer reference injections. Kinetic binding data were globally fit to the Langmuir model for 1:1 binding for each replicate of concentration series using the Sierra Analyser software (version 3.4.1, Bruker Daltonics, Billerica, MA). […]

[4] = biological target: PanZ(R69)-GA-cpGFP-GA-(E70)PanZ (PancAce), SEQ ID NO: 5 (Escherichia coli, UniProt P37613, INS69[…]); assay: Linker screen, fluorescence response to 1 mM acetyl-CoA; type: biochemical, E. coli
Experimental: Linker Length Screen. cpGFP (HTSD1.00) was inserted into 6× histidine tagged PanZ (HTSD1.10) after amino acid R69 with all 16 possible combinations of N- and C-terminal linkers with amino acid sequences GAS, GA, G, no linker using NEBuilder® HiFi DNA Assembly Master Mix (NEB) (HTSD8.00-8.15).
Position and Linker Screen. Assays were done in 96 well plates with 100 μL final well volumes. All sensors and control proteins were diluted to 10 μM in protein storage buffer (50 mM Tris pH 7.5, 150 mM NaCl, 10% glycerol). Acetyl-CoA was dissolved in water at a concentration of 10 mM. A 5× assay buffer was used ([…] pH 7.5, 750 mM NaCl). Wells were set up in triplicate with 60 μL water, 20 μL reaction buffer, and 10 μL sensor. Then either 10 μL of water or 10 μL of acetyl-CoA were added to 1 μM sensor before reading. […] Triplicates were averaged and percent difference between no acetyl-CoA and acetyl-CoA wells were calculated.

[5] = biological target: PancAce (PANcACe), PanZ(R69)-GA-cpGFP-GA-(E70)PanZ, SEQ ID NO: 5 (Escherichia coli, UniProt P37613, INS69[…]); assay: Acyl-CoA screen, fluorescence response to 1 mM acyl-CoA; type: biochemical, E. coli; details: FIG. 11, n=3
Experimental: Acyl-CoA Screen. Assays were done in 384 well plates with 30 μL final volume. All sensors and control proteins were diluted to 6 μM in protein storage buffer. CoA, acetyl-CoA, propionyl-CoA, butyryl-CoA, malonyl-CoA, and succinyl-CoA were dissolved in water at a concentration of 6 mM. Wells were set up in triplicate with 14 μL water, 6 μL assay buffer, and 5 μL sensor. 5 μL of an acyl-CoA or water were added to 1 μM sensor before reading. Plates were read at excitation 485 nm and emission 514 nm. Triplicates were averaged and percent difference between acyl-CoAs and water were calculated.

Q: O=CC[C@@H](O)[C@H](O)[C@H](O)CO [2-DG, 2-deoxyglucose] was tested. Which “recovery of acetyl-CoA levels (sensor response) upon refeeding” value ([1]; PancAce-expressing cells deprived of glucose 3 hours with 28 mM 2-DG, refed 28 mM glucose, monitored 1 hour) did it give?
A: Its value is “lower recovery of acetyl-CoA levels upon refeeding”.

Q: With CC(C)(COP(=O)(O)OP(=O)(O)OC[C@H]1O[C@@H](n2cnc3c(N)ncnc32)[C@H](O)[C@@H]1OP(=O)(O)O)[C@@H](O)C(=O)NCCC(=O)NCCS [CoA, coenzyme A] as the compound, how does the “sensor response” value ([2]; FIG. 9, acetyl-CoA or CoA titration) read?
A: Its value is “the sensor responds only to acetyl-CoA and not CoA”.

Q: And the “CoA concentration required to elicit the same sensor response as 100 μM acetyl-CoA” value ([2]; interpolation, saturation not achieved for CoA)?
A: The value was 10 mM.

Q: For CC(=O)O [acetate], which “duration of increase in PancAce signal upon feeding of starved cells” value ([1]; 280 μM acetate, pre-starved PancAce-expressing cells) is on record?
A: The value was “about 30 minutes”.

Q: What does the source list for CC(=O)SCCNC(=O)CCNC(=O)[C@H](O)C(C)(C)COP(=O)(O)OP(=O)(O)OC[C@H]1O[C@@H](n2cnc3c(N)ncnc32)[C@H](O)[C@@H]1OP(=O)(O)O [acetyl-CoA, acetyl coenzyme A]?
A: fold higher affinity for acetyl-CoA versus CoA [3]: 7 fold; Kd ([3]; 1:1 Langmuir fit, average ± standard error, room temperature, pH 7.5): 1700 ± 200 nM; lower end of detectable acetyl-CoA concentration range ([2]; FIG. 9): about 10 UM; upper end of detectable acetyl-CoA concentration range ([2]; FIG. 9): about 2 mM; fold higher affinity for acetyl-CoA compared to propionyl-CoA ([2]; FIG. 12, λex=485, λem=514 nm, n=3-5): approximately 2.5 fold; fold lower affinity of PANcACe for acetyl-CoA compared to PanZ ([2]; fluorescence Kd,app vs SPR Kd): about 150 fold; maximum fluorescence response at saturating acetyl-CoA ([2]; λex=485, λem=514 nm): ~2 fold; fold-change in fluorescence emission ((F1−F0)/F0) ([4]; 1 mM acetyl-CoA, N-GA/C-GA linkers, λex=485, λem=514 nm): about 0.6 fold; response of GA/GA linker sensor relative to original AS/AS linker ([4]; acetyl-CoA, FIG. 6): about 2.5 fold

Q: How did the “sensor fluorescence response” value [5] turn out when CCC(=O)SCCNC(=O)CCNC(=O)[C@H](O)C(C)(C)COP(=O)(O)OP(=O)(O)OC[C@H]1O[C@@H](n2cnc3c(N)ncnc32)[C@H](O)[C@@H]1OP(=O)(O)O [propionyl-CoA] was run?
A: Its value is “some response”.

Q: And the “fold lower affinity for propionyl-CoA compared to acetyl-CoA” value ([2]; from fitted Kd values)?
A: Its value is 2.4 fold.

Q: What about the “Kd (estimated)” value ([2]; saturation not achieved up to 10 mM, fit assumes same maximal sensor response as for acetyl-CoA) of the same compound?
A: The value was 626000 ± 75000 nM.
